Reference: the NIST ThermoML archive (doi:10.1021/je020176b)
Numbers after ± are expanded uncertainties.

Assays:
[1] = Molar enthalpy of transition or fusion; conditions: Crystal; DSC
[2] = Crystal; DTA

With `C[C@H]([C@@H](O)c1ccccc1)N(C)C` [(+)-N-methylephedrine] the “Molar enthalpy of transition or fusion” value [1] was 7.3 ± 0.208 kcal/mol and the Normal melting temperature [2] was 86.60 ± 2 °C.
